Patent publication US20230091225A1, “Bifunctional chimeric heterocyclic compounds for targeted degradation of androgen receptors and use thereof” (HINOVA PHARMACEUTICALS INC., priority 2019, published 2023)
Where two headings read alike, the source gives them in different places.

Molecular target: T1, androgen receptor (AR) (Homo sapiens, UniProt P10275)
T1 sequence (P10275 1-920): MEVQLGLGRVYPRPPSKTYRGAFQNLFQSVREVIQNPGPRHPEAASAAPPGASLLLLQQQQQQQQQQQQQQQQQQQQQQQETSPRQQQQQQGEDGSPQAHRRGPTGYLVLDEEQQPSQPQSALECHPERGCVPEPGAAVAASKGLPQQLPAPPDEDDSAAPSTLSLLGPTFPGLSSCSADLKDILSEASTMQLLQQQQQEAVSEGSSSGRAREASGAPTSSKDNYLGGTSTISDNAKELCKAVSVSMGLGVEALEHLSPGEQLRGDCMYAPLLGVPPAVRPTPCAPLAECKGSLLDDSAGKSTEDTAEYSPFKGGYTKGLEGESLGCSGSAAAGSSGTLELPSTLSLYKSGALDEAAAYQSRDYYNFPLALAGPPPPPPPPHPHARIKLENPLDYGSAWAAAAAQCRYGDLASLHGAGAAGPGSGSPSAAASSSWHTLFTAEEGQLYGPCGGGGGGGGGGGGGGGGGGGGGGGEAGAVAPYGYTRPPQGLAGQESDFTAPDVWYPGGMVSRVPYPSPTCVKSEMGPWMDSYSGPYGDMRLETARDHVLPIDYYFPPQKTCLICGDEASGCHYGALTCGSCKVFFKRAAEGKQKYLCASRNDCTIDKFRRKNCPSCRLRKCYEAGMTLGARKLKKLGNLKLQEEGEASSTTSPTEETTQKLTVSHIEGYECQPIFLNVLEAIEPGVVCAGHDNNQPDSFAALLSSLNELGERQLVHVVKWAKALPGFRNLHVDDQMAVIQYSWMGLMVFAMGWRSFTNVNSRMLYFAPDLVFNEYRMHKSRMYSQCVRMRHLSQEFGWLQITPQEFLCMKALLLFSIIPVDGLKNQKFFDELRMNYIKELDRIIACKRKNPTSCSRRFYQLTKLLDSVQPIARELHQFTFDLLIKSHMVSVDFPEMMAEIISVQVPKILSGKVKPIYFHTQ
Assay: Degradation of androgen receptor (AR) protein in VCaP cells by ELISA
Assay type: cell-based
Settings: for DC50: read-out: DC50; for Dmax: VCaP, read-out: Dmax (%)

[1] = AR degradation, VCaP cells, 16 h, ELISA, Table 3-1
[2] = AR degradation, VCaP cells, 16 h, ELISA, Table 3-2

DC50 [1]	Dmax [1]	Compound	other results
< 10 nM	> 80%	N#Cc1ccc(O[C@H]2CC[C@H](NC(=O)c3cnc(N4CCC(CN5CCC6(C5)CN(c5cc7c(cc5F)C(=O)N(C5CCC(=O)NC5=O)C7=O)C6)CC4)cn3)CC2)cc1Cl (stereo partly drawn) [Compound 186, N-((1r,4r)-4-(3-chloro-4-cyanophenoxy)cyclohexyl)-5-(4-((2-(2-(2,6-dioxopiperidin-3-yl)-6-fluoro-1,3-dioxoisoindolin-5-yl)-2,6-diazaspiro[3.4]octan-6-yl)methyl)piperidin-1-yl)pyrazine-2-carboxamide]	
< 10 nM	> 80%	N#Cc1ccc(O[C@H]2CC[C@H](NC(=O)c3ccc(N4CCN(C5CC6(CCN(c7cc8c(cc7F)C(=O)N(C7CCC(=O)NC7=O)C8=O)CC6)C5)CC4)nn3)CC2)cc1Cl (stereo partly drawn) [Compound 270, N-((1r,4r)-4-(3-chloro-4-cyanophenoxy)cyclohexyl)-6-(4-(7-(2-(2,6-dioxopiperidin-3-yl)-6-fluoro-13-dioxoisoindolin-5-yl) -7-azaspiro[3.5]nonan-2-yl)piperazin-1-yl)pyridazine-3-formamide]	
> 300 nM		CC1(C)[C@H](Oc2ccc(C#N)c(Cl)c2)C(C)(C)[C@H]1N1Cc2nc(C#CC3CCC(N4CCC5(CN(c6ccc7c(c6)C(=O)N(C6CCC(=O)NC6=O)C7=O)C5)C4)CC3)ccc2C1=O (stereo partly drawn) [Compound 373]	
< 10 nM	> 80%	COc1cc(O[C@H]2CC[C@H](NC(=O)c3ccc(N4CCC(CN5CCC6(CC5)CN(c5ccc7c(c5)C(=O)N(C5CCC(=O)NC5=O)C7=O)C6)CC4)nn3)CC2)ccc1C#N (stereo partly drawn) [Compound 276, N-((1r,4r)-4-(4-cyano-3-methoxyphenoxy)cyclohexyl)-6-(4-((2-(2-(2,6-dioxopiperidin-3-yl)-1,3-dioxoisoindolin-5-yl)-2,7-diazaspiro[3.5]nonan-7-yl)methyl)piperidin-1-yl)pyridazine-3-carboxamide]	
< 10 nM	> 80%	N#Cc1ccc(O[C@H]2CC[C@H](NC(=O)c3cnc(N4CCC(CN5CCC6(C5)CN(c5ccc7c(c5)C(=O)N(C5CCC(=O)NC5=O)C7=O)C6)CC4)cn3)CC2)cc1Cl (stereo partly drawn) [Compound 187, N-((1r,4r)-4-(3-chloro-4-cyanophenoxy)cyclohexyl)-5-(4-((2-(2-(2,6-dioxopiperidin-3-yl)-1,3-dioxoisoindolin-5-yl)-2,6-diazaspiro[3.4]octan-6-yl)methyl)piperidin-1-yl)pyrazine-2-carboxamide]	
< 10 nM	> 80%	N#Cc1ccc(OC2CCC(NC(=O)c3cnc(N4CC5(CCN(CC6CCN(c7cc8c(cc7F)C(=O)N(C7CCC(=O)NC7=O)C8=O)CC6)CC5)C4)cn3)CC2)cc1Cl (stereo not drawn) [Compound 235, N-((1r,4r)-4-(3-chloro-4-cyanophenoxy)cyclohexyl)-5-(7-((1-(2-(2,6-dioxopiperidin-3-yl)-6-fluoro-1,3-dioxoisoindolin-5-yl)piperidine-4-yl)methyl)-2,7-diazaspiro[3.5]nonan-2-yl)pyrazine-2-carboxamide]	
< 10 nM	> 80%	N#Cc1ccc(O[C@H]2CC[C@H](NC(=O)c3ccc(N4CCN(C5CC6(CCN(c7ccc8c(c7)C(=O)N(C7CCC(=O)NC7=O)C8=O)CC6)C5)CC4)nn3)CC2)cc1Cl (stereo partly drawn) [Compound 271, N-((1r,4r)-4-(3-chloro-4-cyanophenoxy)cyclohexyl)-6-(4-(7-(2-(2,6-dioxopiperidin-3-yl)-1,3-dioxoisoindolin-5-yl)-7-azaspiro[3.5]nonan-2-yl)piperazin-1-yl)pyridazine-3-formamide]	

Second part, the compound before the results:

Compound	DC50 [1]	Dmax [1]	other results
N#Cc1ccc(O[C@H]2CC[C@H](NC(=O)c3cnc(N4CCC(CN5CCC6(CC5)CN(c5ccc7c(c5)C(=O)N(C5CCC(=O)NC5=O)C7=O)C6)CC4)nn3)CC2)cc1Br (stereo partly drawn) [Compound 419]			Dmax (%): ++++ (key: A: >80%; B: 79%-50%; C: 49%-25%; D: <25%); DC50: < 10 nM
CC1(C)[C@H](Oc2ccc(C#N)c(Cl)c2)C(C)(C)[C@H]1N1Cc2nc(C#C[C@H]3C[C@H](N4CCN(c5ccc6c(=O)n(C7CCC(=O)NC7=O)cnc6c5)CC4)C3)ccc2C1=O (stereo partly drawn) [Compound 396]			DC50 [2]: 10 to 100 nM; Dmax [2]: > 80%
CC1(C)[C@H](Oc2ccc(C#N)c(Cl)c2)C(C)(C)[C@H]1N1Cc2nc(C#CC3CCC(N4CC5(CCN(c6ccc7c(c6)C(=O)N(C6CCC(=O)NC6=O)C7=O)CC5)C4)CC3)ccc2C1=O (stereo partly drawn) [Compound 377, 2-Chloro-4-((1r,3r)-3-(2-((4-(7-(2-(2,6-dioxopiperidin-3-yl)-1,3-dioxoisoindolin-5-yl)-2,7-diazaspiro[3.5]nonan-2-yl)cyclohexyl)ethynyl)-5-oxo-5,7-dihydro-pyrrolo[3,4-b]pyridin-6-yl)-2,2,4,4-tetramethylcyclobutoxy) benzonitrile]	< 10 nM		Dmax (%) [1]: ++++ (>80%)
N#Cc1ccc(OC2CCC(NC(=O)c3cn(C4CCC(CN5CCC6(CC5)CN(c5ccc7c(c5)C(=O)N(C5CCC(=O)NC5=O)C7=O)C6)CC4)cn3)CC2)cc1Cl [Compound 113, N-((1r,4R)-4-(3-chloro-4-cyanophenoxy)cyclohexyl)-1-((1r,4R)-4-((2-(2-(2,6-dioxopiperidin-3-yl)-1,3-dioxoisoindolin-5-yl)-2,7-diazaspiro[3.5]nonan-7-yl)methyl)cyclohexyl)-1H-imidazole-4-formamide]			Dmax (%): ++++ (key: A: >80%; B: 79%-50%; C: 49%-25%; D: <25%); DC50: < 10 nM
4-((1r,3r)-3-(2-((1r,4r)-4-(4-(2,6-dioxopiperidin-3-yl)-1,3-dioxoisoindolin-5-yl)piperazin-1-2-methoxybenzonitrile [Compound 400]			Dmax (%): ++++ (key: A: >80%; B: 79%-50%; C: 49%-25%; D: <25%); DC50: < 10 nM
N#Cc1ccc(O[C@H]2CC[C@H](NC(=O)c3ccc(N4CCC(N5CC6(CCN(c7cc8c(cc7F)C(=O)N(C7CCC(=O)NC7=O)C8=O)CC6)C5)CC4)nn3)CC2)cc1C(F)(F)F (stereo partly drawn) [Compound 79, N-((1r,4r)-4-(4-cyano-3-(trifluoromethyl)phenoxy)cyclohexyl)-6-(4-(7-(2-(2,6-dioxopiperidin-3-yl)-6-fluoro-1,3-dioxoisoindolin-5-yl)-2,7-diazaspiro[3.5]nonan-2-yl)piperidin-1-yl)pyridazine-3-formamide]	10 to 100 nM	> 80%	
[2H]C([2H])([2H])Oc1cc(O[C@H]2CC[C@H](NC(=O)c3cnc(N4CCC(CN5CCC6(CC5)CN(c5ccc7c(c5)C(=O)N(C5CCC(=O)NC5=O)C7=O)C6)CC4)nn3)CC2)ccc1C#N (stereo partly drawn) [Compound 197, N-((1r,4r)-4-(4-cyano-3-(methoxy-d3)phenoxy)cyclohexyl)-3-(4-((2-(2-(2,6-dioxopiperidin-3-yl)-1,3-dioxoisoindolin-5-yl)-2,7-diazaspiro[3.5]nonan-7-yl)methyl)piperidin-1-yl)-1,2,4-triazine-6-carboxamide]			inhibition at 0.1 µM (percentage of degraded AR at 100 nM, VCaP cells, 16 h, ELISA, read-out: % degradation): > 80%
N#Cc1ccc(O[C@H]2CC[C@H](NC(=O)c3cn([C@H]4CC[C@H](CN5CCC6(CC5)CN(c5ccc7c(c5)C(=O)N(C5CCC(=O)NC5=O)C7=O)C6)CC4)nn3)CC2)cc1Cl (stereo partly drawn) [Compound 114, N-((1r,4R)-4-(3-chloro-4-cyanophenoxy)cyclohexyl)-1-((1r,4R)-4-((2-(2-(2,6-dioxopiperidin-3-yl)-1,3-dioxoisoindolin-5-yl)-2,7-diazaspiro[3.5]nonan-7-yl)methyl)cyclohexyl)-1H-1,2,3-triazole-4-carboxamide]	< 10 nM	> 80%	
C[C@H]1CN(c2cnc(C(=O)N[C@H]3CC[C@H](Oc4ccc(C#N)c(Cl)c4)CC3)cn2)CCN1C[C@H]1[C@@H]2CN(c3cc4c(cc3F)C(=O)N(C3CCC(=O)NC3=O)C4=O)C[C@@H]21 (stereo partly drawn) [Compound 169]	10 to 100 nM	60 to 80%	
